Results from US20240058240A1, “COMPOUNDS AS SELF-TANNING SUBSTANCES AND TANNING COMPOSITIONS THEREOF” (CHEMCOM S.A., priority 2020, published 2024).

Experiments:
Assay type in all cases: cell-based
[1] = test system: Normal Human Epidermal Melanocytes moderately pigmented (NHEMs-MP); experiment: Melanin content (pigmentation) of NHEMs-MP in culture; conditions: 3.16 μM, 4 days, NHEMs-MP, in comparison with DOPA (50 μM)
Experimental: This primary culture was cultivated in medium M254 supplemented (LIFE TECHNOLOGIES; ref:M-254-500) with HMGS (human melanocyte growth supplement; LIFE TECHNOLOGIES; ref: S-002-5) and gentamycin (LIFE TECHNOLOGIES; ref:15710-049) and maintained in a humidified incubator at 37° C. with a 5% CO2 atmosphere. For experiments (see below), cells were seeded at a density of 9×10^4 cells/well (100 μL/well) and cultured at 37° C. under a 5% CO2.
The NHEMs-MP were treated for 4 days, with a medium refresh after 2 days of treatment—Amberketal, Ambermax and with the reference molecule (L-DOPA)—when the culture media are collected and stored at −80° C. as shown in FIG. 2. At the end of the treatments, the culture media were collected a second time, pooled with the media collected at day 2 and centrifuged for 30 minutes (14000 rpm). The pellet obtained after centrifugation and NHEMs-MP treated cells were lysed in 150 μl of a NaOH 1M solution. 5 μl of each cell lysate were used for protein quantification using BCA protein assay. The remaining 145 μl of the lysates were heated at 80° C. during 1 h. The optical density was measured at 490 nm and the melanin content was determined by comparison with a standard curve of synthetic melanin and reported to the quantity of protein present in each cell well tested.
The effects of these 2 compounds, namely Ambermax and Amberketal, on the melanin production were evaluated as described above. Based on MTS results, moderately pigmented (MP) NHEMs were treated with these 2 compounds at one concentration (100 μM for Amberketal and 3.16 μM for Ambermax) for 4 days. In parallel, cell cultures were also treated with Ethanol 0.1%, a concentration corresponding to the test compounds solvent, and with a known modulator of pigmentation (L-DOPA 50 μM). […] At the end of the treatments (D4), cells were lysed, the melanin content was quantified by spectrophotometry and normalized to the amount of proteins. Extracellular melanin was also evaluated by the same methodology after centrifugation of the culture media.

[2] = test system: human skin explants; experiment: Cellular viability of human skin living explants (Masson's trichrome, Goldner variant)
Experimental: Human skin explants of an average diameter of 12 mm (±1 mm) were prepared on an abdoplasty coming from a person (reference: P2237AB47—phototype II) or person (reference P2196-AB61, phototype III). The explants were kept in survival in BEM culture medium (BIO-EC's Explants Medium) at 37° C. in a humid, 5%-CO2 atmosphere.
The Ambermax was diluted in 0.1% ethanol at the following concentrations: 0.3 μM, 1 μM, 3 μM, 10 μM, 15 μM, 30 μM and 100 μM. The diluted solutions were stored at 4° C. during the study.
The explants were treated for 10 days with Ambermax (see products application below) or with no treatment.
On day 0 (DO), day 3 (D3), day 5 (D5), day 7 (D7) and day 10 (D10), the tested products (compounds for use in the invention) were 1) applied topically using a small spatula based on 2 μl per explant (2 mg per cm^2) at the indicated concentrations, 2) applied intradermatically by injections into the dermis using a syringe with 20 μL of product for each explant or 3) applied systemically by dilutions of the compound of invention in the culture media at the indicated concentration. […] The culture medium was half renewed (1 ml/well) on day 3, day 5, day 7 and day 10.
On day 0 (D0), D2, D3, D6, and D8, the tested products (compounds for use in the invention) were applied topically using a small spatula on the basis of 2 μl per explant (2 mg per cm^2). […] The culture medium was half renewed (1 ml/well) on D2, D3, D6 and D8.
After fixation for 24 hours in buffered formalin solution, the samples were dehydrated and impregnated in paraffin using a Leica PEARL dehydration automat. The samples were then paraffin-embedded using a Leica EG 1160 embedding station. 5-μm-thick sections of paraffin-embedded formol fixed sections were realized using a Leica RM 2125 Minot-type microtome, and the sections were then mounted on Superfrost® Plus glass slides. Microscopical observations were realized using a Leica DMLB, a BX43 or BX63 Olympus microscope. Pictures were digitized with an Olympus DP72 or DP74 camera and the Cell^D or cellSens data storing software.
The cell viability of epidermal and papillary dermal structures was observed on formalin-fixed paraffin-embedded (FFPE) skin sections after Masson's trichrome staining, Goldner variant. The cell viability was assessed by microscopical observation. Concerned batches: T0, (TUV, P1→P10) on D5 or D6 and D10.
The effects ex vivo was shown by treating human biopsies for 10 days (human living explants: 12 mm+/−1, donor, skin type III) with a systemic application, intradermic injections or a topical application of compounds according to embodiments of the invention (Ambermax). Concentrations of 1, 5 and 10 μM of this compound were used for systemic application and intradermic injections on the human explants. For topical application, biopsies were treated with 10, 30, and 100 μM of Ambermax. As control, non-treated explants or/and explants exposed to chronic UVA-irradiations were used as described in the experimental procedures.

[3] = test system: human skin explants; experiment: Melanogenesis in human skin living explants (Masson's Fontana staining, image analysis); conditions: systemic treatment, 3 and 5 μM, after 5 days, compared with chronic UVA

Question: With Ambermax [Compound 16] as the substance, how does the “increase of melanin present in the media (extracellular)” value ([1]; p<0.01, n=10) read?
Answer: +123%

Question: What about the “increase of intracellular melanin content” value ([1]; p<0.01, n=12) of the same substance?
Answer: +46%

Question: What about the explant toxicity ([2]; 0.3-100 μM, 3 different ways of application) of the same substance?
Answer: doesn't induce explant toxicity

Question: And the explant viability ([2]; D5 and D10, 3 concentrations, 3 methods of application (topical, systemic, intradermal), skin type III)?
Answer: no significant alterations of explant viability

Question: And the explant alterations ([2]; application of 100 μM, D10)?
Answer: very slight alterations

Question: And the “alteration of the papillary dermis” value ([2]; topical administration, 100 μM)?
Answer: no modification of the papillary dermis

Question: What about the “explant viability in the epidermis (macroscopic evaluation)” value ([2]; topical administration, 100 μM) of the same substance?
Answer: very slight decrease in the viability

Question: And the melanogenesis [3]?
Answer: rise of melanogenesis equivalent to the one obtained with a chronic UVA irradiation
